Laboratory results published in ChEMBL document CHEMBL1212896, “Discovery of novel cyanodihydropyridines as potent mineralocorticoid receptor antagonists” (J Med Chem, 2010).
Values after ≈ are worked out from the molar mass of the structure shown.

Key:
[1] = molecular target: T1, Mineralocorticoid receptor (Homo sapiens, UniProt P08235)
T1 sequence (P08235 whole entry): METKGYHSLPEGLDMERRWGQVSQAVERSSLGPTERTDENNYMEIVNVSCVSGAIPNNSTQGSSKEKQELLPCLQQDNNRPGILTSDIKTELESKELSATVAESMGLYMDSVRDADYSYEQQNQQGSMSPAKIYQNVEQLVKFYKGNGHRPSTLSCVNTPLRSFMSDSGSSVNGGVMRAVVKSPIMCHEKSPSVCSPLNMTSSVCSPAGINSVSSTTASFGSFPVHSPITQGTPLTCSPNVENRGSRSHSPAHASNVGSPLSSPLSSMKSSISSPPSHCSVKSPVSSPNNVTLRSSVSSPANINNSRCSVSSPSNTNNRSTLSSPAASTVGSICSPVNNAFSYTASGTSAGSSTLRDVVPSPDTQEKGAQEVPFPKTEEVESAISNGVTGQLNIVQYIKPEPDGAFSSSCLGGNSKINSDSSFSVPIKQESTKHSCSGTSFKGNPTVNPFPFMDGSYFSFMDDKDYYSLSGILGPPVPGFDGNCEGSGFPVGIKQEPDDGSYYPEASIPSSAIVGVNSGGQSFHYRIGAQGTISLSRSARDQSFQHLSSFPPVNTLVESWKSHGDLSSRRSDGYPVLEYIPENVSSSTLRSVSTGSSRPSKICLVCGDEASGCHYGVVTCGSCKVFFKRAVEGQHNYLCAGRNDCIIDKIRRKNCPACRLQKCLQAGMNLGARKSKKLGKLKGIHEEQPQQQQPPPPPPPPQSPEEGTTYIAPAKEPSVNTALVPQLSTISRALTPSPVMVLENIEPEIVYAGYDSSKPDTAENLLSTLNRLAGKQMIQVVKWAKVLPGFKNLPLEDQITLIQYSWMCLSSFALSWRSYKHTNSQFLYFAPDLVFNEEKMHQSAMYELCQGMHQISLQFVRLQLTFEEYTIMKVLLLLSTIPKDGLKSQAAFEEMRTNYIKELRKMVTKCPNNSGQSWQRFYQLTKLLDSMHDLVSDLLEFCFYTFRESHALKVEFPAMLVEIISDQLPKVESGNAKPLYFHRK
Description: Antagonist activity at mineralocorticoid receptor LBD expressed in human HUH7 cells coexpressing GAL4 by luciferase reporter gene assay

[2] = molecular target: T2, Glucocorticoid receptor (Homo sapiens, UniProt P04150); test: Antagonist activity at glucocorticoid receptor LBD expressed in human HUH7 cells coexpressing GAL4 by luciferase reporter gene assay; format: functional, cell-based, Huh-7
T2 sequence (P04150 whole entry): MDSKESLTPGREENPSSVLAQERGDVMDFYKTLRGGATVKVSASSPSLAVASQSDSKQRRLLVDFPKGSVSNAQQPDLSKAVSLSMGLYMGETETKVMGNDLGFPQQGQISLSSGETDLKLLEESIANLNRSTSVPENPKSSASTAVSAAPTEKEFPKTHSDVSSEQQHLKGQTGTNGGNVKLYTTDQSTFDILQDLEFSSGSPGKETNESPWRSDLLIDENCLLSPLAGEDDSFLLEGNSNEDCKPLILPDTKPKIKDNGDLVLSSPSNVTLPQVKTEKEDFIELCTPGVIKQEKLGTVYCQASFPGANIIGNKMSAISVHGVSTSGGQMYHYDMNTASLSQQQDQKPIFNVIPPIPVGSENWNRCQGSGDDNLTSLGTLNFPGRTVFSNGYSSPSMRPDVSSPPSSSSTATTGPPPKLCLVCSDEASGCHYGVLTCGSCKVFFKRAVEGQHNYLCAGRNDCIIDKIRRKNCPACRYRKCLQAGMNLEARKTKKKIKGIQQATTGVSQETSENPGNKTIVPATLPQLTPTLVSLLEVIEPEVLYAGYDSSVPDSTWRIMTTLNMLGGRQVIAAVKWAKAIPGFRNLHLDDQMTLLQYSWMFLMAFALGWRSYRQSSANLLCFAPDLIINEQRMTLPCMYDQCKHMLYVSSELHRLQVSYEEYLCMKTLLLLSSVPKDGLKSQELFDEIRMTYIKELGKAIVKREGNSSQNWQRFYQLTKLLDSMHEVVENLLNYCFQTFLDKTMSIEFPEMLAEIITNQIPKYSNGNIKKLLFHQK

[3] = molecular target: T3, Androgen receptor (Homo sapiens, UniProt P10275); test: Antagonist activity at androgen receptor LBD expressed in human HUH7 cells coexpressing GAL4 by luciferase reporter gene assay; format: functional, cell-based, Huh-7
T3 sequence (P10275 whole entry): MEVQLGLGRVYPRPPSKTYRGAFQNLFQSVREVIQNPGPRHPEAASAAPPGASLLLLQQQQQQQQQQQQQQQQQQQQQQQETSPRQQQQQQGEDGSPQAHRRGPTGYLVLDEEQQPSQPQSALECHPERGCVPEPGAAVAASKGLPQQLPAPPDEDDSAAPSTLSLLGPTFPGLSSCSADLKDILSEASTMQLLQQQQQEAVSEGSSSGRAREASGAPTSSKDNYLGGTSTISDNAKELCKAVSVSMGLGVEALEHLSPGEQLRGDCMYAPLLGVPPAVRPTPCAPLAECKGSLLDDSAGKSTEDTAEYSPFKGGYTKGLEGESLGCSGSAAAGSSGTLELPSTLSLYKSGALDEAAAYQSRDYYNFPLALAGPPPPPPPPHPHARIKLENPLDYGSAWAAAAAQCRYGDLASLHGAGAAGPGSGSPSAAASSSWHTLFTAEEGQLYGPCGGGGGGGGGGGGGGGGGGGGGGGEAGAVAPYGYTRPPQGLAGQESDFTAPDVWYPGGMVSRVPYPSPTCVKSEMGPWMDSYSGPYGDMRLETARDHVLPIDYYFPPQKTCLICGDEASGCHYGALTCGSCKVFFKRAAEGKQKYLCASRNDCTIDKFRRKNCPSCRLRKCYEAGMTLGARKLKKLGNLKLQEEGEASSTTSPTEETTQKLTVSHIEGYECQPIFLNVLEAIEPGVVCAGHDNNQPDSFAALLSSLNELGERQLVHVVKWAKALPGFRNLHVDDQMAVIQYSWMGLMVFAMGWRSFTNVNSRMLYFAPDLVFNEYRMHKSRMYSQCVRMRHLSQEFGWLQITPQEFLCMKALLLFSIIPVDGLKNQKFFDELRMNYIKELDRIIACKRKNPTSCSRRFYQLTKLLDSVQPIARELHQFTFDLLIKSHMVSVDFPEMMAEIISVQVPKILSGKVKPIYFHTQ

[4] = molecular target: T4, Progesterone receptor (Homo sapiens, UniProt P06401); test: Antagonist activity at progesterone receptor LBD expressed in human HUH7 cells coexpressing GAL4 by luciferase reporter gene assay; format: functional, cell-based, Huh-7
T4 sequence (P06401 whole entry): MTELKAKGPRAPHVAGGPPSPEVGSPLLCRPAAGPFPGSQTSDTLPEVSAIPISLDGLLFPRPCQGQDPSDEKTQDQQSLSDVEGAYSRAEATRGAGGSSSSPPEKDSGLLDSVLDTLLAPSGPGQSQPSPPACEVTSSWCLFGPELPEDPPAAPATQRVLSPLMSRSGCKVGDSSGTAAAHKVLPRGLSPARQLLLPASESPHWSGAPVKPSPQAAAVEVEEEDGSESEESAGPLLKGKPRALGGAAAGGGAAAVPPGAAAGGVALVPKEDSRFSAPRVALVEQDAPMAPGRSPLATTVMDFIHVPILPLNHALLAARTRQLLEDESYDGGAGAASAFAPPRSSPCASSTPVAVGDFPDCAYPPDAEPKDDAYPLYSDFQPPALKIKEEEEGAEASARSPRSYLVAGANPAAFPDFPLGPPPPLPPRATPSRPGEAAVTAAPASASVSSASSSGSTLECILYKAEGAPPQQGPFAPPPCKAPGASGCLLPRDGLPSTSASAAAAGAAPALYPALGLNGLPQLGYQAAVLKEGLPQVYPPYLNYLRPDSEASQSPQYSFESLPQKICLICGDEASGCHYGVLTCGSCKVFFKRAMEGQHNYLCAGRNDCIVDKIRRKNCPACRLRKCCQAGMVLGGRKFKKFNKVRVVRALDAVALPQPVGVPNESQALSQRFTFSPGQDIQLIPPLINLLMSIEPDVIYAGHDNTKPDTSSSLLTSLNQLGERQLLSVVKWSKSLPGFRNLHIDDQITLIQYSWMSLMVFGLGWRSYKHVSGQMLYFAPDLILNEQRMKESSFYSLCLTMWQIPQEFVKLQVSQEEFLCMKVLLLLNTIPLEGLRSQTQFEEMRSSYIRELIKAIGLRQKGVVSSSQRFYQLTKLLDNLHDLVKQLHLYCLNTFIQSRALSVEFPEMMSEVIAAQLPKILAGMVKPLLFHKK

[5] = test system: Liver microsomes; test: Metabolic stability in human liver microsomes assessed as compound remaining; format: ADME, Microsome; also: time not given here
[6] = test system: Liver microsomes; test: Metabolic stability in rat liver microsomes assessed as compound remaining; format: ADME, Microsome; also: time not given here
[7] = Solubility of the compound; format: physicochemical
[8] = molecular target: Cytochrome P450 3A4 (Homo sapiens, UniProt P08684); test: Inhibition of CYP3A4; format: ADME
Sequence of Cytochrome P450 3A4 (P08684 whole entry): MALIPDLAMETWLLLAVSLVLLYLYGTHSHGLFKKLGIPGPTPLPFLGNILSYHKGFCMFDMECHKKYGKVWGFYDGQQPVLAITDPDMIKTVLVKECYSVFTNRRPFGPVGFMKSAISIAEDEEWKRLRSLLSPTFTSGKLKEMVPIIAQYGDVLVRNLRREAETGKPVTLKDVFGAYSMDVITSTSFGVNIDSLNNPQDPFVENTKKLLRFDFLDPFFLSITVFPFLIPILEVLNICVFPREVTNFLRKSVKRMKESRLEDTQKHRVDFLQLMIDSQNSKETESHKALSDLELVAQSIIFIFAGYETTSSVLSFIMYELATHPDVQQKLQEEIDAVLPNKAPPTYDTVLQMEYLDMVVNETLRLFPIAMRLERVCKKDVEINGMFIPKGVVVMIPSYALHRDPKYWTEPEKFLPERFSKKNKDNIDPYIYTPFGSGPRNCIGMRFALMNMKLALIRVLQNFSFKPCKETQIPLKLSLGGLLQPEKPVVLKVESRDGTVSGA

[9] = molecular target: Cytochrome P450 2C9 (Homo sapiens, UniProt P11712); test: Inhibition of CYP2C9; format: ADME
Sequence of Cytochrome P450 2C9 (P11712 whole entry): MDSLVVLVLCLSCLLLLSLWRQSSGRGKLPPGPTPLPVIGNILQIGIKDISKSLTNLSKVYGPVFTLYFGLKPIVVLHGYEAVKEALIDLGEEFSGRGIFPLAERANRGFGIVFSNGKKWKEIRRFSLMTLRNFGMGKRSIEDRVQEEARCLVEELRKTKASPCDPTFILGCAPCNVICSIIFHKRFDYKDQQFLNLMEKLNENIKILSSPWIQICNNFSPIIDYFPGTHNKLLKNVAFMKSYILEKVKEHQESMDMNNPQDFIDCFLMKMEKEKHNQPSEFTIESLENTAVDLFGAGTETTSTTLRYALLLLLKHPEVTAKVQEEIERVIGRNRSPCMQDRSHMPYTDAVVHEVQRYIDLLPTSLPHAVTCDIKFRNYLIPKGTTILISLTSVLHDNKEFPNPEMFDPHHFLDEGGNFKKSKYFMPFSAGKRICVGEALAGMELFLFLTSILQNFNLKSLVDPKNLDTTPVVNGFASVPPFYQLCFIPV

[10] = molecular target: Cytochrome P450 2D6 (Homo sapiens, UniProt P10635); test: Inhibition of CYP2D6; format: ADME
Sequence of Cytochrome P450 2D6 (P10635 whole entry): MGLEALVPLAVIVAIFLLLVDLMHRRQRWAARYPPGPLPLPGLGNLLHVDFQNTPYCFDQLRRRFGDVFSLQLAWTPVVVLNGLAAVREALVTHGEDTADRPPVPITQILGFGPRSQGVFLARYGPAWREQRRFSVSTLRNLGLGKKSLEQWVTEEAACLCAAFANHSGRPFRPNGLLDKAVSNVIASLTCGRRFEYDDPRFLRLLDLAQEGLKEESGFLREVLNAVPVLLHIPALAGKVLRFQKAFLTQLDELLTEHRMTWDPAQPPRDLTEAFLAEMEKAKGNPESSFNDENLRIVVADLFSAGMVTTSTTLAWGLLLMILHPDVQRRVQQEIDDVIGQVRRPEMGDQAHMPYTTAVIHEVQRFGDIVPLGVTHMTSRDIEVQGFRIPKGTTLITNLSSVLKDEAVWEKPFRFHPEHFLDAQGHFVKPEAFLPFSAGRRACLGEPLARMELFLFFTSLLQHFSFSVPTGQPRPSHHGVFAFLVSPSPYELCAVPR

IC50 [1] [nM]	SMILES	further results
594	COC(=O)C1=C(C)NC(C)=C(C#N)C1c1ccccc1Cl (configuration not stated)	–
2830	COC(=O)C1=C(C)NC(C)=C(C(=O)OC(C)(C)C)C1c1cccc(O)c1 (configuration not stated)	–
7430	CCCC1=C(C(=O)OC)C(c2ccccc2)C(C#N)=C(C)N1 (configuration not stated)	–
201	CC1=C(C#N)C(c2ccc(F)cc2F)C(C(=O)OC(C)(C)C)=C(C)N1 (configuration not stated)	–
553	COC(=O)C1=C(C)NC(C)=C(C(=O)OC(C)(C)C)C1c1ccccc1OC (configuration not stated)	–
208	COC(=O)C1=C(C)NC(C)=C(C(=O)OC(C)(C)C)C1c1ccccc1C (configuration not stated)	–
661	CC1=C(C#N)C(C)(c2ccc(F)cc2)C(C(=O)OC(C)(C)C)=C(C)N1 (configuration not stated)	–
655	COCC1=C(C(=O)OC)C(c2ccccc2Cl)C(C#N)=C(C)N1 (configuration not stated)	–
574	COC(=O)C1=C(C)NC(C)=C(C(=O)OC(C)(C)C)C1c1ccc(Cl)c(F)c1 (configuration not stated)	–
2020	COC(=O)C1=C(C)NC(C)=C(C(=O)OC(C)(C)C)C1c1ccccc1F (configuration not stated)	–
1090	CCOC(=O)C1=C(c2ccc(Cl)cc2)NC(C)=C(C#N)C1c1ccccc1Cl (configuration not stated)	–
58	CCCCC1=C(C(=O)OC)C(c2ccccc2Cl)C(C#N)=C(C)N1 (configuration not stated)	IC50 [2]: 1600 nM; IC50 [3]: 900 nM; IC50 [4]: 300 nM; Stability [5]: 11%; Stability [6]: 3%; solubility [7]: < 5 µM
621	COC(=O)C1=C(C)NC(C)=C(C(=O)OC(C)(C)C)C1c1ccccc1Cl (configuration not stated)	–
1620	CCN1C(C)=C(C#N)C(c2ccc(F)cc2F)C(C(=O)OC(C)(C)C)=C1C (configuration not stated)	–
2790	COC(=O)C1=C(C)NC(C)=C(C(=O)OC(C)(C)C)C1c1cccc(C)c1 (configuration not stated)	–
329	CC1=C(C#N)C(c2ccc(F)cc2)C(C(=O)OC(C)(C)C)=C(C)N1 (configuration not stated)	–
275	COC(=O)C1=C(C(F)(F)F)N(C)C(C)=C(C#N)C1c1ccc(F)cc1Cl (configuration not stated)	–
518	COC(=O)C1=C(C)NC(C)=C(C(=O)OC(C)(C)C)C1c1cccc(Cl)c1 (configuration not stated)	–

IC50 [1] [nM]	SMILES	further results
319	COC(=O)C1=C(C)NC(C)=C(C(=O)OC(C)(C)C)C1c1ccc(Cl)cc1 (configuration not stated)	–
288	COC(=O)C1=C(C)NC(C)=C(C(=O)OC(C)(C)C)C1c1ccc(F)cc1 (configuration not stated)	–
2570	COC(=O)C1=C(C)NC(C)=C(C(=O)OC(C)(C)C)C1c1ccc(O)cc1 (configuration not stated)	–
1390	COC(=O)C1=C(C)NC(C)=C(C(=O)OC(C)(C)C)C1c1cccc(F)c1 (configuration not stated)	–
12000	COC(=O)C1=C(C)NC(C)=C(C(=O)OC(C)(C)C)C1c1ccc(C)cc1 (configuration not stated)	–
224	COC(=O)C1=C(C)NC(C)=C(C(=O)OC(C)(C)C)C1c1ccccc1C(F)(F)F (configuration not stated)	–
52	COC(=O)C1=C(C(F)(F)F)NC(C)=C(C#N)C1c1ccc(F)cc1Cl (configuration not stated)	IC50 [2]: 3700 nM; IC50 [3]: 800 nM; IC50 [4]: 7800 nM; Stability [5]: 0%; Stability [6]: 6%; inhibition (INH) [8]: 30%; inhibition (INH) [9]: 72%; inhibition (INH) [10]: 6.8%
888	COC(=O)C1=C(C)NC(C)=C(C(=O)OC(C)(C)C)C1c1cccc(OC)c1 (configuration not stated)	–
852	COC(=O)C1=C(Cc2ccccc2)NC(C)=C(C#N)C1c1ccccc1Cl (configuration not stated)	–
208	COC(=O)C1=C(C(C)C)NC(C)=C(C#N)C1c1ccccc1Cl (configuration not stated)	–
702	COC(=O)C1=C(C)NC(C)=C(C(=O)OC(C)(C)C)C1c1cccc(C(F)(F)F)c1 (configuration not stated)	–
78	COC(=O)C1=C(C)NC(C)=C(C(=O)OC(C)(C)C)C1c1ccc(F)cc1Cl (configuration not stated)	–
923	CCOC(=O)C1=C(c2ccccc2)NC(C)=C(C#N)C1c1ccccc1Cl (configuration not stated)	–
2620	COC(=O)C1=C(C)NC(C)=C(C(=O)OC(C)(C)C)C1c1ccc(OC)cc1 (configuration not stated)	–
3740	COCCN1C(C)=C(C#N)C(c2ccc(F)cc2F)C(C(=O)OC(C)(C)C)=C1C (configuration not stated)	–
232	CCC1=C(C(=O)OC)C(c2ccccc2Cl)C(C#N)=C(C)N1 (configuration not stated)	–
309	COC(=O)C1=C(C)NC(C)=C(C(=O)OC(C)(C)C)C1c1ccc(C(F)(F)F)cc1 (configuration not stated)	–
3200	COC(=O)C1=C(C)NC(C)=C(C(=O)OC(C)(C)C)C1c1cccc(C#N)c1 (configuration not stated)	–

SMILES	IC50 [1] [nM]	further results
CCCC1=C(C(=O)OC)C(c2ccc(F)cc2Cl)C(C#N)=C(C)N1 (configuration not stated)	16	IC50 [2]: 700 nM; IC50 [3]: 100 nM; IC50 [4]: > 10000 nM; Stability [5]: 4%; Stability [6]: 4%; solubility [7]: 5 µM (≈ 1.74 µg/mL)
